In patent publication EP3753932A1, “SUBSTITUTED BICYCLIC DERIVATIVES HAVING MULTIMODAL ACTIVITY AGAINST PAIN” (priority 2019, dated 2020) one finds Ki data, which are given here for 18 molecules.

Where two headings read alike, the source gives them in different places. Bounds are passed on as bounds.

One test has as its target T1, Human µ-opioid receptor (Homo sapiens, UniProt P35372).
T1 construct: expressed in transfected cells; host or cells: CHO-K1
In words: Human µ-opioid receptor radioligand assay ([3H]-DAMGO). The class given is binding. As for the experimental part:
Human µ-opioid receptor radioligand assay
Transfected CHO-K1 cell membranes (20 µg) were incubated with [^3H]-DAMGO (1 nM) in assay buffer containing Tris-HCl 50 mM, MgCl2 5 mM at pH 7.4. NBS (non-specific binding) was measured by adding 10 µM Naloxone. The binding of the test compound was measured at either one concentration (% inhibition at 1 or 10 µM) or five different concentrations to determine affinity values (Ki). Plates were incubated at 27 °C for 60 min. After the incubation period, the reaction mixture was then transferred to MultiScreen HTS, FC plates (Millipore), filtered and plates were washed 3 times with ice-cold 10 mM Tris-HCl (pH 7.4). Filters were dried and counted at approximately 40% efficiency in a MicroBeta scintillation counter (Perkin-Elmer) using EcoScint liquid scintillation cocktail.

Test [1] addresses Human α2δ-1 subunit of Cav2.2 calcium channel (Homo sapiens, UniProt P54289). In words: Human α2δ-1 subunit of Cav2.2 calcium channel assay ([3H]-Gabapentin binding). The procedure:
Human α2δ-1 subunit of Cav2.2 calcium channel assay
Human α2δ-1 enriched membranes (2.5 µg) were incubated with 15 nM of radiolabeled [3H]-Gabapentin in assay buffer containing Hepes-KOH 10mM, pH 7.4. NSB (non specific binding) was measured by adding 10 µM pregabalin. The binding of the test compound was measured at either one concentration (% inhibition at 1 or 10 µM) or five different concentrations to determine affinity values (Ki). After 60 min incubation at 27 °C, binding reaction was terminated by filtering through Multiscreen GF/C (Millipore) presoaked in 0.5 % polyethyleneimine in Vacuum Manifold Station, followed by 3 washes with ice-cold filtration buffer containing 50 mM Tris-HCl, pH 7.4. Filter plates were dried at 60 °C for 1 hour and 30 µl of scintillation cocktail were added to each well before radioactivity reading. Readings were performed in a Trilux 1450 Microbeta radioactive counter (Perkin Elmer).

Setting [2] is: human α2δ-1 enriched membranes, [3H]-Gabapentin 15 nM, read-out: α2δ-1 binding.
[3] abbreviates: transfected CHO-K1 cell membranes, [3H]-DAMGO 1 nM, read-out: µ-binding.

T1 sequence (P35372 whole entry): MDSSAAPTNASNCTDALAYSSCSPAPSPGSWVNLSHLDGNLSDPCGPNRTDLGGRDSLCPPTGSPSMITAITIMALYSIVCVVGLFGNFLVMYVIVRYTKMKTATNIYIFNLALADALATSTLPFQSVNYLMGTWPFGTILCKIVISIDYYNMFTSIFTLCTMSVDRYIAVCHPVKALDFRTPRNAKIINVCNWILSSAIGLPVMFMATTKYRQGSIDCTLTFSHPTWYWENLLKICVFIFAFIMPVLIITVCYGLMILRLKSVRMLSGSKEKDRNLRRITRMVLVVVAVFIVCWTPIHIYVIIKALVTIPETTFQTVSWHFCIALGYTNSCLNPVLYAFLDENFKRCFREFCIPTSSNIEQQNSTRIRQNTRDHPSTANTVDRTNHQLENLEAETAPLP
Chain of Human α2δ-1 subunit of Cav2.2 calcium channel (P54289 25-1103): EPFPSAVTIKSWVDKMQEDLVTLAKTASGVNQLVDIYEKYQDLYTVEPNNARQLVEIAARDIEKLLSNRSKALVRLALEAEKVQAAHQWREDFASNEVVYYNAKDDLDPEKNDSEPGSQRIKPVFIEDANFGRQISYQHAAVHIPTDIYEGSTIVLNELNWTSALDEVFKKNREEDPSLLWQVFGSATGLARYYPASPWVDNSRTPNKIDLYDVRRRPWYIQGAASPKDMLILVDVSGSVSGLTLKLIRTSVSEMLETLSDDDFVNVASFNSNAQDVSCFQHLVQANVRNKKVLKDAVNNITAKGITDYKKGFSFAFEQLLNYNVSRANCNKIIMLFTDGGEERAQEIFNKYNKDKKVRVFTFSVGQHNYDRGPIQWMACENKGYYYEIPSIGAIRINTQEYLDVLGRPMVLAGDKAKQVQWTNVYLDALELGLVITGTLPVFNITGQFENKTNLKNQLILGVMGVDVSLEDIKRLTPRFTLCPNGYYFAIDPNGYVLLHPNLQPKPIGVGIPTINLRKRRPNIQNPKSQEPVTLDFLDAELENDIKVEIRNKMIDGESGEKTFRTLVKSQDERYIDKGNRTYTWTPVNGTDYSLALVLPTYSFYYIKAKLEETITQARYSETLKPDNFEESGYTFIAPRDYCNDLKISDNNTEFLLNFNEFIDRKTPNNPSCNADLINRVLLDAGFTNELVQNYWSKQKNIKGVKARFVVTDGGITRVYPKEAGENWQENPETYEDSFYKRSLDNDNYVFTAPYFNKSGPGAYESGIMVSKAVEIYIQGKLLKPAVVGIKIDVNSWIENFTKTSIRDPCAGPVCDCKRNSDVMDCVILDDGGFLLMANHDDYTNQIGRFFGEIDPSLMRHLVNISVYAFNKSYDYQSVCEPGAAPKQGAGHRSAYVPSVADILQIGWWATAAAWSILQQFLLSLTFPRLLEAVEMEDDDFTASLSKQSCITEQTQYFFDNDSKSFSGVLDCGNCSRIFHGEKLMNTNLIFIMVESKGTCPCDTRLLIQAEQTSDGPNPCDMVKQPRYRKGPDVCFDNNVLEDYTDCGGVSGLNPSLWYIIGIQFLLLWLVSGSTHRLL

As for `CCC[C@@H](c1cc2ccc(CN3CCC(c4cccc(O)c4)(N(C)C)CC3)cc2nc1CC)N1C[C@@H](C)N[C@@H](C)C1` [Example 24, 3-(4-(Dimethylamino)-1-((3-((S)-1-((3S,5R)-3,5-dimethylpiperazin-1-yl)butyl)-2-ethylquinolin-7-yl)methyl)piperidin-4-yl)phenol], the Ki on Human µ-opioid receptor was under 100 nM; in test [1] (setting [2]), 500 to 5000 nM.
As to `CCCC(c1ncc2cc(N3CCC(c4cccc(O)c4)(N(C)C)CC3)ccc2n1)N1C[C@@H](C)N[C@@H](C)C1` (stereo partly drawn) [Example 25, 3-(4-(Dimethylamino)-1-(2-(1-((3S,5R)-3,5-dimethylpiperazin-1-yl)butyl)quinazolin-6-yl)piperidin-4-yl)phenol], the Ki is under 100 nM at Human µ-opioid receptor (setting [3]) and over 5000 nM in test [1].
Turning to `CCC[C@H](c1ncc2cc(N3CCC(c4cccc(O)c4)(N(C)C)CC3)ccc2n1)N1C[C@@H](C)N[C@@H](C)C1` [Example 26, 3-(4-(Dimethylamino)-1-(2-((R)-1-((3S,5R)-3,5-dimethylpiperazin-1-yl)butyl)quinazolin-6-yl)piperidin-4-yl)phenol], the Ki is under 100 nM on Human µ-opioid receptor (setting [3]) and over 5000 nM in test [1].
On to `CCC[C@@H](c1ncc2cc(N3CCC(c4cccc(O)c4)(N(C)C)CC3)ccc2n1)N1C[C@@H](C)N[C@@H](C)C1` [Example 27, 3-(4-(Dimethylamino)-1-(2-((S)-1-((3S,5R)-3,5-dimethylpiperazin-1-yl)butyl)quinazolin-6-yl)piperidin-4-yl)phenol], for which the Ki on Human µ-opioid receptor (setting [3]) was under 100 nM; in test [1] it was over 5000 nM.
Regarding `CCCC(c1ncc2cc(CN3CCC(c4cccc(O)c4)(N(C)C)CC3)ccc2n1)N1C[C@@H](C)N[C@@H](C)C1` (stereo partly drawn) [Example 28, 3-(4-(Dimethylamino)-1-((2-(1-((3S,5R)-3,5-dimethylpiperazin-1-yl)butyl)quinazolin-6-yl)methyl)piperidin-4-yl)phenol], the Ki on Human µ-opioid receptor was under 100 nM; in test [1] (setting [2]), over 5000 nM.
For `CCC[C@H](c1ncc2cc(CN3CCC(c4cccc(O)c4)(N(C)C)CC3)ccc2n1)N1C[C@@H](C)N[C@@H](C)C1` [Example 29, 3-(4-(Dimethylamino)-1-((2-((R)-1-((3S,5R)-3,5-dimethylpiperazin-1-yl)butyl)quinazolin-6-yl)methyl)piperidin-4-yl)phenol], the figures for the Ki (at Human µ-opioid receptor; in test [1] (setting [2])) were under 100 nM and 500 to 5000 nM, respectively.
In the case of `CCC[C@@H](c1ncc2cc(CN3CCC(c4cccc(O)c4)(N(C)C)CC3)ccc2n1)N1C[C@@H](C)N[C@@H](C)C1` [Example 30, 3-(4-(Dimethylamino)-1-((2-((S)-1-((3S,5R)-3,5-dimethylpiperazin-1-yl)butyl)quinazolin-6-yl)methyl)piperidin-4-yl)phenol], the Ki is under 100 nM on Human µ-opioid receptor and over 5000 nM in test [1] (setting [2]).
On to `CCCC(c1cc(OC)c2cc(N3CCC(c4ccccc4)(N(C)C)CC3)ccc2n1)N1C[C@@H](C)N[C@@H](C)C1` (stereo partly drawn) [Example 31, 1-(2-(1-((3S,5R)-3,5-Dimethylpiperazin-1-yl)butyl)-4-methoxyquinolin-6-yl)-N,N-dimethyl-4-phenylpiperidin-4-amine], for which the Ki is 100 to 500 nM on Human µ-opioid receptor (setting [3]) and under 500 nM in test [1].
As to `CCCC(c1cnc2cc(N3CCC(c4cccc(O)c4)(N(C)C)CC3)ccc2n1)N1C[C@@H](C)N[C@@H](C)C1` (stereo partly drawn) [Example 32, 3-(4-(Dimethylamino)-1-(2-(1-((3S,5R)-3,5-dimethylpiperazin-1-yl)butyl)quinoxalin-6-yl)piperidin-4-yl)phenol], the values for the Ki (on Human µ-opioid receptor; in test [1] (setting [2])) were under 100 nM and 500 to 5000 nM, respectively.
With `CCCC(c1cnc2ccc(N3CCC(c4cccc(O)c4)(N(C)C)CC3)cc2n1)N1C[C@@H](C)N[C@@H](C)C1` (stereo partly drawn) [Example 33, 3-(4-(Dimethylamino)-1-(3-(1-((3S,5R)-3,5-dimethylpiperazin-1-yl)butyl)quinoxalin-6-yl)piperidin-4-yl)phenol], the Ki at Human µ-opioid receptor (setting [3]) is under 100 nM; in test [1] it was under 500 nM.
The like results for `CCC[C@H](c1cnc2ccc(N3CCC(c4cccc(O)c4)(N(C)C)CC3)cc2n1)N1C[C@@H](C)N[C@@H](C)C1` [Example 34, 3-(4-(Dimethylamino)-1-(3-((R)-1-((3S,5R)-3,5-dimethylpiperazin-1-yl)butyl)quinoxalin-6-yl)piperidin-4-yl)phenol] were, in that order, under 100 nM and under 500 nM.
For the molecule `CCC[C@@H](c1cnc2ccc(N3CCC(c4cccc(O)c4)(N(C)C)CC3)cc2n1)N1C[C@@H](C)N[C@@H](C)C1` [Example 35, 3-(4-(Dimethylamino)-1-(3-((S)-1-((3S,5R)-3,5-dimethylpiperazin-1-yl)butyl)quinoxalin-6-yl)piperidin-4-yl)phenol], the Ki at Human µ-opioid receptor fell in the range of 100 to 500 nM; in test [1] (setting [2]), 500 to 5000 nM.
As to `CCCC(c1cnc2ccc(CN3CCC(c4cccc(O)c4)(N(C)C)CC3)cc2n1)N1C[C@@H](C)N[C@@H](C)C1` (stereo partly drawn) [Example 37, 3-(4-(Dimethylamino)-1-((3-(1-((3S,5R)-3,5-dimethylpiperazin-1-yl)butyl)quinoxalin-6-yl)methyl)piperidin-4-yl)phenol], the Ki on Human µ-opioid receptor (setting [3]) is under 100 nM; in test [1] it was under 500 nM.
Take `CCC[C@H](c1cnc2ccc(CN3CCC(c4cccc(O)c4)(N(C)C)CC3)cc2n1)N1C[C@@H](C)N[C@@H](C)C1` [Example 38, 3-(4-(Dimethylamino)-1-((3-((R)-1-((3S,5R)-3,5-dimethylpiperazin-1-yl)butyl)quinoxalin-6-yl)methyl)piperidin-4-yl)phenol]: the values for the Ki (on Human µ-opioid receptor (setting [3]); in test [1]) were under 100 nM and under 500 nM, respectively.
Take `CCC[C@@H](c1cnc2ccc(CN3CCC(c4cccc(O)c4)(N(C)C)CC3)cc2n1)N1C[C@@H](C)N[C@@H](C)C1` [Example 39, 3-(4-(Dimethylamino)-1-((3-((S)-1-((3S,5R)-3,5-dimethylpiperazin-1-yl)butyl)quinoxalin-6-yl)methyl)piperidin-4-yl)phenol]: the Ki is under 100 nM at Human µ-opioid receptor and 500 to 5000 nM in test [1] (setting [2]).
Take `CCCC(c1nc2ccc(CN3CCC(c4cccc(O)c4)(N(C)C)CC3)cc2nc1CC)N1C[C@@H](C)N[C@@H](C)C1` (stereo partly drawn) [Example 40, 3-(4-(Dimethylamino)-1-((2-(1-((3S,5R)-3,5-dimethylpiperazin-1-yl)butyl)-3-ethylquinoxalin-6-yl)methyl)piperidin-4-yl)phenol]: the Ki on Human µ-opioid receptor (setting [3]) is under 100 nM; in test [1] it was under 500 nM.
Turning to `CCC[C@H](c1nc2ccc(CN3CCC(c4cccc(O)c4)(N(C)C)CC3)cc2nc1CC)N1C[C@@H](C)N[C@@H](C)C1` [Example 41, 3-(4-(Dimethylamino)-1-((2-((R)-1-((3S,5R)-3,5-dimethylpiperazin-1-yl)butyl)-3-ethylquinoxalin-6-yl)methyl)piperidin-4-yl)phenol], the Ki is under 100 nM at Human µ-opioid receptor (setting [3]) and under 500 nM in test [1].
For `CCC[C@@H](c1nc2ccc(CN3CCC(c4cccc(O)c4)(N(C)C)CC3)cc2nc1CC)N1C[C@@H](C)N[C@@H](C)C1` [Example 42, 3-(4-(Dimethylamino)-1-((2-((S)-1-((3S,5R)-3,5-dimethylpiperazin-1-yl)butyl)-3-ethylquinoxalin-6-yl)methyl)piperidin-4-yl)phenol], the Ki is under 100 nM on Human µ-opioid receptor and 500 to 5000 nM in test [1] (setting [2]).
